# Like-named read-outs stand apart in the source and are kept apart here.
# Columns and labels:
# [1] = test system: eNOS; assay: eNOS mRNA expression in HUVEC; format: cell-based, human; conditions: FIG. 15
# Text: It has been shown that activation of MRGD by alamandine plays an important role in vasodilation by increasing nitric oxide (NO) production. NO produced by the endothelium is an important protective molecule in the vasculature and is mainly generated by the enzyme endothelial NO synthase (eNOS) in blood vessels. Enhancing the expression of eNOS has been considered as possible therapeutic strategy for reducing cardiovascular risk.
# [2] = biological target: MRGD (Homo sapiens, UniProt Q8TDS7); assay: cell-based
# MRGD, sequence (Q8TDS7 whole entry): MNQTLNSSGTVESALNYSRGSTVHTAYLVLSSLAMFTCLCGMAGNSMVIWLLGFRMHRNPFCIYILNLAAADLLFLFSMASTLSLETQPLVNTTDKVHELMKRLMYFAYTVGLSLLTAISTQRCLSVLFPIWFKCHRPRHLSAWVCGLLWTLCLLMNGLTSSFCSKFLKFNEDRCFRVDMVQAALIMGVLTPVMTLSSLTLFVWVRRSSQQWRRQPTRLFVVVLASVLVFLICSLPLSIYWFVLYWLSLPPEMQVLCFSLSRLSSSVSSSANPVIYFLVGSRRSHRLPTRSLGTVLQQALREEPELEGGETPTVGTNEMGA
# Experimental: (§1) The platform uses ChemiScreen GPCR stable cell lines that are used for real-time calcium flux assays to rapidly, screen a spectrum of GPCRs. […] Percentage activation values were determined upon initial addition of compound(s). Percentage activation and inhibition values were determined for each GPCR relative to the reference compounds.
# (§2) Assays were performed according to the manufacturer's instructions. […] The assay plate was read by the FLIPR TETRA® (Molecular Devices, Sunnyvale, Calif.). All assay plate data were subjected to appropriate baseline corrections and the maximum fluorescence values were processed to calculate percentage activation (relative to ECmax reference agonist and vehicle control values).
# [3] = biological target: NMUR2 (Homo sapiens, UniProt Q9GZQ4); assay: cell-based
# NMUR2, sequence (Q9GZQ4 whole entry): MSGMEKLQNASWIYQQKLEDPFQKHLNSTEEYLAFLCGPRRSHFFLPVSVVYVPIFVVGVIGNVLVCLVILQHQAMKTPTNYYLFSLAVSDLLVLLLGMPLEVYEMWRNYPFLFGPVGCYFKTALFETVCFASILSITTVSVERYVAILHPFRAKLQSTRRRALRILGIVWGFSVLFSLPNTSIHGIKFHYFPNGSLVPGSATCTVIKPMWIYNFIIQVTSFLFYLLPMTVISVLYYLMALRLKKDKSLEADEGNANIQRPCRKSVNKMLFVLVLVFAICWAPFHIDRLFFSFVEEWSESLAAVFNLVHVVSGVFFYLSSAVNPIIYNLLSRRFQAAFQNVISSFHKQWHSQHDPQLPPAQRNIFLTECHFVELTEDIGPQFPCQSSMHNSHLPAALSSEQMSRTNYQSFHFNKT
# Experimental: as §1, §2
# [4] = biological target: MC2 (Homo sapiens, UniProt Q01718); assay: cell-based
# MC2, sequence (Q01718 whole entry): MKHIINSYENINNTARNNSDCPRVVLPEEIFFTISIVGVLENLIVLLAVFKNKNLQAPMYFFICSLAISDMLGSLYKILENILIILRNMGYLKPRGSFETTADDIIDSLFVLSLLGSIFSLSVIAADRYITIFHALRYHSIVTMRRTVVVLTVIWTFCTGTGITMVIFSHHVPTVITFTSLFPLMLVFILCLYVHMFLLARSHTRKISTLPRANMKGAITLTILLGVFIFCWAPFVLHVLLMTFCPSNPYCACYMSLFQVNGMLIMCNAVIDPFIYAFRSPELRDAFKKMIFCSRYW
# MC2, sequence (Q8TCY5 whole entry partner): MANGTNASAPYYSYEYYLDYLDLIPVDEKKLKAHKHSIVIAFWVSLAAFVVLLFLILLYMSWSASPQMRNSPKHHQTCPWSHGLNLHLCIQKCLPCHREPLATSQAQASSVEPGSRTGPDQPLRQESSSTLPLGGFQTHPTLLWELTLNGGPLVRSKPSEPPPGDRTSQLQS
# Experimental: as §1, §2
# [5] = biological target: NK1 (Homo sapiens, UniProt P25103); assay: cell-based
# Experimental: as §1, §2
# [6] = biological target: GPCR40 (Homo sapiens, UniProt O14842); assay: cell-based
# GPCR40, sequence (O14842 whole entry): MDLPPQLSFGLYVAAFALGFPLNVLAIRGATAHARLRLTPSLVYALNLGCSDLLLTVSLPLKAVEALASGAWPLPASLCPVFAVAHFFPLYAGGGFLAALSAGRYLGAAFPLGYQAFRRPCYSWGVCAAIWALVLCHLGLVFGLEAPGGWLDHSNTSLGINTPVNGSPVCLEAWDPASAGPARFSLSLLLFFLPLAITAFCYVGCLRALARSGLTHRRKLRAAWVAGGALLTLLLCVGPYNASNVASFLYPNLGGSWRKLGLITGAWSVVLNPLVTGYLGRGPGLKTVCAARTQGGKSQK
# Experimental: as §1, §2
# [7] = biological target: NPBW1 (Homo sapiens, UniProt P48145); assay: cell-based
# Experimental: as §1, §2
# [8] = biological target: NOP (Homo sapiens, UniProt P41146); assay: cell-based
# NOP, sequence (P41146 whole entry): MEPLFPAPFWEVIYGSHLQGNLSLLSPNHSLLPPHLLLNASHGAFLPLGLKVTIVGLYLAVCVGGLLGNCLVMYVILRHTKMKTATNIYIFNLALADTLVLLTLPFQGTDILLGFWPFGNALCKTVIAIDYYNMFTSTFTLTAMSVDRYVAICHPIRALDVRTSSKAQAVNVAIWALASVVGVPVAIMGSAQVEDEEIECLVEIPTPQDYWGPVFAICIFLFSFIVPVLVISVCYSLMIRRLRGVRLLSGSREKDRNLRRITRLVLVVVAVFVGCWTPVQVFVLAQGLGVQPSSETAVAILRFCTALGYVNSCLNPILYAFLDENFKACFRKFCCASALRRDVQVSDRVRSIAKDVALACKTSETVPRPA
# Experimental: as §1, §2
# [9] = biological target: MCHR1 (Homo sapiens, UniProt Q99705); assay: cell-based
# MCHR1, sequence (Q99705 whole entry): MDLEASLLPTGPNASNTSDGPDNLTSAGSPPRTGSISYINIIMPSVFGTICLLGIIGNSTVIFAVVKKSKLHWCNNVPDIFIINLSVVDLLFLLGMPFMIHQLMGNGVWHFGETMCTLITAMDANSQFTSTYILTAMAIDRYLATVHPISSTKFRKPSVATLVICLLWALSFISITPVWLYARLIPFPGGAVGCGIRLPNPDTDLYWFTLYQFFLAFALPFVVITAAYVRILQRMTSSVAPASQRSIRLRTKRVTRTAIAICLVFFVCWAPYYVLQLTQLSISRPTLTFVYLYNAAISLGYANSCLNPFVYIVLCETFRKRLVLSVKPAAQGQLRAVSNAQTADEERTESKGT
# Experimental: as §1, §2
# [10] = biological target: NK2 (Homo sapiens, UniProt P21452); assay: cell-based
# NK2, sequence (P21452 whole entry): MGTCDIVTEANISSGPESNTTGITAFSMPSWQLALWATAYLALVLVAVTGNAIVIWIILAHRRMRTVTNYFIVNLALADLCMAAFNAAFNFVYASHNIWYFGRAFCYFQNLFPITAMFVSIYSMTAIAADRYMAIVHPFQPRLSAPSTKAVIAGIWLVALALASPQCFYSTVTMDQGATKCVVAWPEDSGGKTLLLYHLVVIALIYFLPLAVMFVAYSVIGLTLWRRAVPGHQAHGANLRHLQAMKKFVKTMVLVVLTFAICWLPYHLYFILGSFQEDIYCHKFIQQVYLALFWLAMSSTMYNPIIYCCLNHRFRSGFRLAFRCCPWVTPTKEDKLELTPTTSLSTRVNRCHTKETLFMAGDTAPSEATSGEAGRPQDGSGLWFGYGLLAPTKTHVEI
# Experimental: as §1, §2
# [11] = biological target: MC5 (Homo sapiens, UniProt P33032); assay: cell-based
# MC5, sequence (P33032 whole entry): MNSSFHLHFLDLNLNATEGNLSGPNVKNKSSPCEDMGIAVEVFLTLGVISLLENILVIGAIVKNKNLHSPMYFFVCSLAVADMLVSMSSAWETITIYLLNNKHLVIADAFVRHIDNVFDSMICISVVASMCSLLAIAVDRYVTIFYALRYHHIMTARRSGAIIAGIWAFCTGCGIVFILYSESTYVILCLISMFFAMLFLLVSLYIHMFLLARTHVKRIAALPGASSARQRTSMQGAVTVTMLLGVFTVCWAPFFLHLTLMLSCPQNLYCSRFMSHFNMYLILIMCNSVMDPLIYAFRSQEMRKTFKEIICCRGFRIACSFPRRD
# Experimental: as §1, §2
# [12] = biological target: Motilin (Homo sapiens, UniProt O43193); assay: cell-based
# Motilin, sequence (O43193 whole entry): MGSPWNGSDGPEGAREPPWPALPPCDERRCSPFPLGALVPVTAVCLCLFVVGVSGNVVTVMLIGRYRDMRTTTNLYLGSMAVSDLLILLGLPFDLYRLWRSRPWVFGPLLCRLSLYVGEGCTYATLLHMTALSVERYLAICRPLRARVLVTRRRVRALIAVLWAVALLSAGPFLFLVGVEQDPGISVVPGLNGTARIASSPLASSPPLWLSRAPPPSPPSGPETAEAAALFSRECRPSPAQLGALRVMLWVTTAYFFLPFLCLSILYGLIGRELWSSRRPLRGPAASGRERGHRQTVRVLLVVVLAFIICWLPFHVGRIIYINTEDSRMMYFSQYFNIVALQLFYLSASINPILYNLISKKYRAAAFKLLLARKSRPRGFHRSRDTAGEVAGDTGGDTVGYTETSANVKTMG
# Experimental: as §1, §2
# [13] = biological target: MC4 (Homo sapiens, UniProt P32245); assay: cell-based
# MC4, sequence (P32245 whole entry): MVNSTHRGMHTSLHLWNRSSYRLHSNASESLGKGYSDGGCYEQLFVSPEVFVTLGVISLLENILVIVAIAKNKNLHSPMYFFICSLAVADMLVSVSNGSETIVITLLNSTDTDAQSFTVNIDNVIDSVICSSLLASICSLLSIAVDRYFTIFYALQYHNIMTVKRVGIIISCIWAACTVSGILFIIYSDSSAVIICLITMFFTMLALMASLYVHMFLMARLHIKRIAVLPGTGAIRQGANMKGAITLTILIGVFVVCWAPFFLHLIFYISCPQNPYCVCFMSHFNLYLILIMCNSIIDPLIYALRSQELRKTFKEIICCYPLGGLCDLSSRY
# Experimental: as §1, §2
# [14] = biological target: MCHR2 (Homo sapiens, UniProt Q969V1); assay: cell-based
# MCHR2, sequence (Q969V1 whole entry): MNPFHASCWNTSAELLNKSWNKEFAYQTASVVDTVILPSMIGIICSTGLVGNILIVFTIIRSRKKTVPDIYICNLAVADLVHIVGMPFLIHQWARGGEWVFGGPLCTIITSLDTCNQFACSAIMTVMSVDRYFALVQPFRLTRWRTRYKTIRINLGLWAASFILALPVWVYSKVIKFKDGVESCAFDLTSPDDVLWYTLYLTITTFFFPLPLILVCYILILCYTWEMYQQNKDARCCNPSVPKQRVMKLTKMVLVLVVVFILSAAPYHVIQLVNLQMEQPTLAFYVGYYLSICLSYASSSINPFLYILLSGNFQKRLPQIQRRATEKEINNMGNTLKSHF
# Experimental: as §1, §2
# [15] = biological target: MRGX2 (Homo sapiens, UniProt Q96LB1); assay: cell-based
# MRGX2, sequence (Q96LB1 whole entry): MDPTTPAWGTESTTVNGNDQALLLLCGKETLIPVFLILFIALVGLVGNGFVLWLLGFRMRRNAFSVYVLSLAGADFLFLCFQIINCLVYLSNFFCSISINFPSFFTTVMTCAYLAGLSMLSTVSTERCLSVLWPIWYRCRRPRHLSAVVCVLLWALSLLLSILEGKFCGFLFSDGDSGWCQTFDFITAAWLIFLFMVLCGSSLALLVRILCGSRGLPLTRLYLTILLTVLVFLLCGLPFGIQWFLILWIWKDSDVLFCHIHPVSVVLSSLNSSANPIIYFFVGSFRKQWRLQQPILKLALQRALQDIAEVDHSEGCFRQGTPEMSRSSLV
# Experimental: as §1, §2
# [16] = biological target: NMUR1 (Homo sapiens, UniProt Q9HB89); assay: cell-based
# Experimental: as §1, §2
# [17] = biological target: MRGX1 (Homo sapiens, UniProt Q96LB2); assay: cell-based
# MRGX1, sequence (Q96LB2 whole entry): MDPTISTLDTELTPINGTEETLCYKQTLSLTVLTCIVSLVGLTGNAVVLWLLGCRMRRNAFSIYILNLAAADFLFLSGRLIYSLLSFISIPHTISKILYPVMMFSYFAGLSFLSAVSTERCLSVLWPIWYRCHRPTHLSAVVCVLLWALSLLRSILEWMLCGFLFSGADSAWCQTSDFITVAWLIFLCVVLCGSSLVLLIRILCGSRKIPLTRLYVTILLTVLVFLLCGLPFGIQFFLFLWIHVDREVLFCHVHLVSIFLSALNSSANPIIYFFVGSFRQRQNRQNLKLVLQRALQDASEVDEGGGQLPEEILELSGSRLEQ
# Experimental: as §1, §2
# [18] = read-out: percent activation compared to standards, DT-110 @ 1.25 mM, Avg.
# [19] = read-out: percent activation compared to standards, DT-110 @ 1.25 mM, n1
# [20] = read-out: percent activation compared to standards, DT-110 @ 1.25 mM, n2
# [21] = read-out: percent activation compared to standards, DT-110 @ 12.5 mM, Avg.
# [22] = read-out: percent activation compared to standards, DT-110 @ 12.5 mM, n1
# [23] = read-out: percent activation compared to standards, DT-110 @ 12.5 mM, n2
smiles,measurement,setting,value
CC(C)C[C@@H](NC(=O)CNC(=O)CN)C(=O)O,eNOS mRNA levels,"[1]; 30 minutes, vs control",the same
same,eNOS expression,[1]; 60 minutes,increased eNOS expression
same,eNOS expression,[1]; 120 minutes,increased eNOS expression
same,activation at 1250 µM,[2]; [18],69.2%
same,activation at 1250 µM,[2]; [19],76.5%
same,activation at 1250 µM,[2]; [20],62%
same,activation at 12500 µM,[2]; [21],64.5%
same,activation at 12500 µM,[2]; [22],60.7%
same,activation at 12500 µM,[2]; [23],68.3%
same,activation at 1250 µM,[3]; [18],2.4%
same,activation at 1250 µM,[3]; [19],0.9%
same,activation at 1250 µM,[3]; [20],3.9%
same,activation at 12500 µM,[3]; [21],-0.9%
same,activation at 12500 µM,[3]; [22],0.4%
same,activation at 12500 µM,[3]; [23],-2.2%
same,activation at 1250 µM,[4]; [18],-0.7%
same,activation at 1250 µM,[4]; [19],0.6%
same,activation at 1250 µM,[4]; [20],-2%
same,activation at 12500 µM,[4]; [21],-1%
same,activation at 12500 µM,[4]; [22],-1%
same,activation at 12500 µM,[4]; [23],-0.9%
same,activation at 1250 µM,[5]; [18],-0.9%
same,activation at 1250 µM,[5]; [19],-1%
same,activation at 1250 µM,[5]; [20],-0.9%
same,activation at 12500 µM,[5]; [21],-1.1%
same,activation at 12500 µM,[5]; [22],-1%
same,activation at 12500 µM,[5]; [23],-1.1%
same,activation at 1250 µM,[6]; [18],-9.5%
same,activation at 1250 µM,[6]; [19],-9.3%
same,activation at 1250 µM,[6]; [20],-9.6%
same,activation at 12500 µM,[6]; [21],50.2%
same,activation at 12500 µM,[6]; [22],55.9%
same,activation at 12500 µM,[6]; [23],44.5%
same,activation at 1250 µM,[7]; [18],0.2%
same,activation at 1250 µM,[7]; [19],1.6%
same,activation at 1250 µM,[7]; [20],-1.1%
same,activation at 12500 µM,[7]; [21],-0.9%
same,activation at 12500 µM,[7]; [22],-0.8%
same,activation at 12500 µM,[7]; [23],-0.9%
same,activation at 1250 µM,[8]; [18],-0.1%
same,activation at 1250 µM,[8]; [19],-7.8%
same,activation at 1250 µM,[8]; [20],7.6%
same,activation at 12500 µM,[8]; [21],-2.3%
same,activation at 12500 µM,[8]; [22],3.4%
same,activation at 12500 µM,[8]; [23],-8%
same,activation at 1250 µM,[9]; [18],0.4%
same,activation at 1250 µM,[9]; [19],0.2%
same,activation at 1250 µM,[9]; [20],0.7%
same,activation at 12500 µM,[9]; [21],-0.1%
same,activation at 12500 µM,[9]; [22],-0.5%
same,activation at 12500 µM,[9]; [23],0.3%
same,activation at 1250 µM,[10]; [18],-9.5%
same,activation at 1250 µM,[10]; [19],-9.4%
same,activation at 1250 µM,[10]; [20],-9.6%
same,activation at 12500 µM,[10]; [21],-9.6%
same,activation at 12500 µM,[10]; [22],-9.5%
same,activation at 12500 µM,[10]; [23],-9.7%
same,activation at 1250 µM,[11]; [18],0%
same,activation at 1250 µM,[11]; [19],0.7%
same,activation at 1250 µM,[11]; [20],-0.8%
same,activation at 12500 µM,[11]; [21],-0.3%
same,activation at 12500 µM,[11]; [22],-0.6%
same,activation at 12500 µM,[11]; [23],0%
same,activation at 1250 µM,[12]; [18],-0.3%
same,activation at 1250 µM,[12]; [19],-0.3%
same,activation at 1250 µM,[12]; [20],-0.3%
same,activation at 12500 µM,[12]; [21],-0.4%
same,activation at 12500 µM,[12]; [22],-0.3%
same,activation at 12500 µM,[12]; [23],-0.5%
same,activation at 1250 µM,[13]; [18],-0.5%
same,activation at 1250 µM,[13]; [19],3%
same,activation at 1250 µM,[13]; [20],-4%
same,activation at 12500 µM,[13]; [21],3.4%
same,activation at 12500 µM,[13]; [22],-0.2%
same,activation at 12500 µM,[13]; [23],7%
same,activation at 1250 µM,[14]; [18],0.5%
same,activation at 1250 µM,[14]; [19],0.1%
same,activation at 1250 µM,[14]; [20],0.8%
same,activation at 12500 µM,[14]; [21],-0.9%
same,activation at 12500 µM,[14]; [22],-0.8%
same,activation at 12500 µM,[14]; [23],-0.9%
same,activation at 1250 µM,[15]; [18],-0.2%
same,activation at 1250 µM,[15]; [19],0%
same,activation at 1250 µM,[15]; [20],-0.4%
same,activation at 12500 µM,[15]; [21],0%
same,activation at 12500 µM,[15]; [22],0.4%
same,activation at 12500 µM,[15]; [23],-0.4%
same,activation at 1250 µM,[16]; [18],0.5%
same,activation at 1250 µM,[16]; [19],1.3%
same,activation at 1250 µM,[16]; [20],-0.4%
same,activation at 12500 µM,[16]; [21],-0.1%
same,activation at 12500 µM,[16]; [22],-0.7%
same,activation at 12500 µM,[16]; [23],0.5%
same,activation at 1250 µM,[17]; [18],-1.9%
same,activation at 1250 µM,[17]; [19],-1.3%
same,activation at 1250 µM,[17]; [20],-2.5%
same,activation at 12500 µM,[17]; [21],-6.6%
same,activation at 12500 µM,[17]; [22],-6.7%
same,activation at 12500 µM,[17]; [23],-6.6%
